Reference: patent publication US11773078B2, “Furin inhibitors” (Glaxosmithkline Intellectual Property Development Limited, priority 2018, dated 2023)

What was measured:
[1] = biological target: T1, furin (endogenous protease) in U20S cells (Homo sapiens, UniProt P09958); experiment: Furin cell-based assay (image-based, Golgi-targeted GFP with BMP10 furin/PCSK cleavage site); conditions: 24-hour incubation, read-out: furin golgi cell pXC50 (converted);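 further: Read-out is mean GFP fluorescence of Golgi puncta per cell by high-content imaging, retained when furin inhibited, over an eleven-point 0.00017–10 µM series, four-parameter fit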
T1 construct: the endogenous protease cleaves GFP; endogenous in cells; host or cells: U2OS cells transduced with a BacMam reporter
Method: This assay uses an image-based platform to evaluate the intracellular activity of compounds of the invention. Reactions were performed in black 384-well, tissue culture-treated, clear bottom plates (Greiner). Compounds under analysis were dissolved in DMSO (1.0 mM) and serially diluted 1 to 3 with DMSO through eleven dilutions. This creates a final compound concentration range from 0.00017 to 10 μM, and 0.1 μL of each concentration was transferred to the corresponding well of the assay plate. Assays were initiated by the addition of U20S cells simultaneously transduced with a BacMam-delivered construct containing a Golgi-targeting sequence followed by a 12-amino acid furin/PCSK cleavage site from Bone Morphogenic Protein 10 (BMP10) and then GFP at the C terminus. […] Briefly, frozen cells are thawed in assay media (Dulbecco's Modified Eagles Medium Nutritional Mixture F-12 (Ham) without phenol red containing 5% FBS) and diluted to deliver 6000 cells/well (50 μL) to the plate using a Multidrop Combi (Thermo).
After a 24-hour incubation period at 37° C., the cells are stained with Cell Mask Deep Red, fixed in paraformaldehyde and the nuclei stained using Ho33342. The Golgi-targeted GFP forms bright punctate clusters within the cell. In the absence of a furin inhibitor, the endogenous protease cleaves GFP from its N-acetylgalactosaminyltransferase-2 Golgi tether, releasing GFP into the Golgi lumen where fluorescence is diluted below the threshold of assay sensitivity. […] Cellular GFP intensity is determined by image-based acquisition (Incell 2200, Perkin Elmer) at 40× magnification with 4 fields measured per well. Multi-scale tophat segmentation is used to identify the GFP-tagged puncta and to quantitate the average fluorescence of all puncta on a per cell basis. Cellular toxicity is determined in parallel.
Data were analyzed using AbaseXE 7.3, utilizing a four-parameter curve fit equation. The following values were used to define limits and/or constraints for each of the four parameters: • Minimum—limit −10 to 10 • Maximum—90 to 110 • Slope—limit 0.5 to 2.0 • pXC50 confidence interval—10
Raw counts obtained from the respective plate reader (Perkin Elmer) were captured for data analysis. Curves were generated using the equation: Y=A+[(B−A)/(1+(10^C/x)^D)] • where: A=minimum response • B=maximum response • C=log 10*XC50 • D=slope factor • x=log 10 compound concentration [M]
The results were recorded as pXC50 values (−C in the above equation)

[2] = biological target: T2, Furin (108-574-Tev-Flag-His) enzyme (Homo sapiens, UniProt P09958); experiment: Furin enzyme assay; type: biochemical
T2 construct: Furin (108-574-Tev-Flag-His) enzyme was expressed and purified from CHO cells; TEV cleavage site (C); FLAG (C); His (C); made in house; host or cells: CHO cells
Procedure, shortened: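 Compounds ran as 11-point threefold dilutions (0.00017–10 μM final) against 40 pM furin, purified from CHO cells, for 2 h at room temperature. Buffer: 100 mM HEPES pH7.5 with 1 mM CaCl2 and 0.005% Triton X-100. Envision readout. Four-parameter curve gives pXC50.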

T2 sequence (P09958 108-574): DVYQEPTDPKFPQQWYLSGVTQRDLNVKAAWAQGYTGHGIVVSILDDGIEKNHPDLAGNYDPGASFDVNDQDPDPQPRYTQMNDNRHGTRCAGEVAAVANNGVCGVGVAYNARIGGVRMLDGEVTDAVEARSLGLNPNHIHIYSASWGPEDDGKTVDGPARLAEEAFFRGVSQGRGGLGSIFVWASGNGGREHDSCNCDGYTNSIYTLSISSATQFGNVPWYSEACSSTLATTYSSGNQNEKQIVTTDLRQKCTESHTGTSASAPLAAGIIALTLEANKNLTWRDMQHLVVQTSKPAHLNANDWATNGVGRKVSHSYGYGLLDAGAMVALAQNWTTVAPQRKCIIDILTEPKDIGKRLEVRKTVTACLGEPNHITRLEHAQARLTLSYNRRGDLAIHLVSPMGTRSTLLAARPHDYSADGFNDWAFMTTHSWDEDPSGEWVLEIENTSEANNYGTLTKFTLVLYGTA
T1 sequence (P09958 108-794): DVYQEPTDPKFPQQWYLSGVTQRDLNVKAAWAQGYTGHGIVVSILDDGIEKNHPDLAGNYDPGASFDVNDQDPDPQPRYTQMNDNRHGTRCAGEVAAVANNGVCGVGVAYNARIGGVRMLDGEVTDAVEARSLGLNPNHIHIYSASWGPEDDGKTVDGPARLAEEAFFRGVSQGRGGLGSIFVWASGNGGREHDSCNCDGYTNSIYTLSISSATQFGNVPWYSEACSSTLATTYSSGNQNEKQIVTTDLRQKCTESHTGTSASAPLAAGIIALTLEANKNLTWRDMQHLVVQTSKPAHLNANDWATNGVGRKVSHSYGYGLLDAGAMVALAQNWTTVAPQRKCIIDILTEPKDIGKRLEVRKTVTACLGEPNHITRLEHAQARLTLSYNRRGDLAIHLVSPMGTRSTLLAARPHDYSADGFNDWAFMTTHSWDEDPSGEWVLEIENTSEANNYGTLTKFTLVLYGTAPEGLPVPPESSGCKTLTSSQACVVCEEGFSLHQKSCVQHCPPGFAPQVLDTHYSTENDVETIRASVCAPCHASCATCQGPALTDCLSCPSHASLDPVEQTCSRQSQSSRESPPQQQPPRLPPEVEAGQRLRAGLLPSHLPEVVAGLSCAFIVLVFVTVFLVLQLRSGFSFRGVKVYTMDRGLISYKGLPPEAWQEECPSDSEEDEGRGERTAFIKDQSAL

SMILES | EC50 [1] [nM] | furin enzyme pIC50 [2] | IC50 ([2]; read-out: furin enzyme pIC50 (converted)) [nM]
CC(=O)NCC1CCN(Cc2cc(Oc3ccc(N4CCN(CCS(C)(=O)=O)CC4)nc3)cc(-c3cc(Cl)cc(Cl)c3)c2)CC1 [Example 293, N-((1-((3′,5′-dichloro-5-((6-(4-(2-(methylsulfonyl)ethyl)piper-1-yl)pyridin-3-yl)oxy)-[1,1′-biphenyl]-3-yl)methyl)piperidin-4-yl)methyl)acetamide] | 158 | 8.2 | 
COC(=O)NCC1CCN(Cc2cc(Oc3cnc(N4CCN(CCC(=O)O)[C@@H](C)C4)nc3)nc(-c3cc(Cl)cc(Cl)c3)c2)CC1 [Example 294, (S)-3-(4-(5-((6-(3,5-dichlorophenyl)-4-((4-(((methoxycarbonyl)amino)methyl)piperidin-1-yl)methyl)pyridin-2-yl)oxy)pyrimidin-2-yl)-2-methylpiperazin-1-yl)propanoic acid] | 20 | 10.1 | 
CNC(=O)NCC1CCN(Cc2cc(Oc3cnc(N4CCN(CCC(C)O)CC4)nc3)nc(-c3cc(Cl)cc(Cl)c3)c2)CC1 (stereo not shown) [Example 295, 1-((1-((2-(3,5-dichlorophenyl)-6-((2-(4-(3-hydroxybutyl)piperazin-1-yl)pyrimidin-5-yl)oxy)pyridin-4-yl)methyl)piperidin-4-yl)methyl)-3-methylurea] | 0.794 | 9.5 | 
CC(=O)NCC1CCN(Cc2cc(Oc3cnc(N4CC5CCC(C4)N5CCC(=O)O)nc3)nc(-c3cc(Cl)cc(Cl)c3)c2)CC1 [Example 296, 3-(3-(5-((4-((4-(acetamidomethyl)piperidin-1-yl)methyl)-6-(3,5-dichlorophenyl)pyridin-2-yl)oxy)pyrimidin-2-yl)-3,8-diazabicyclo[3.2.1]octan-8-yl)propanoic acid] | 10 | 10.6 | 
COC(=O)CCN1CCN(c2ncc(Oc3cc(CN4CCC(CNC(C)=O)CC4)cc(-c4cc(Cl)cc(Cl)c4)n3)cn2)CC1 [Example 297, methyl 3-(4-(5-((4-((4-(acetamidomethyl)piperidin-1-yl)methyl)-6-(3,5-dichlorophenyl)pyridin-2-yl)oxy)pyrimidin-2-yl)piperazin-1-yl)propanoate] | 5.01 | 9.4 | 
C[C@@H](O)CN1CCN(c2ccc(Oc3cc(CN4CCC(CC(=O)O)CC4)cc(-c4cc(Cl)cc(Cl)c4)n3)cn2)CC1 [Example 299, (R)-2-(1-((2-(3,5-dichlorophenyl)-6-((6-(4-(2-hydroxypropyl)piperazin-1-yl)pyridin-3-yl)oxy)pyridin-4-yl)methyl)piperidin-4-yl)acetic acid] | 31.6 | 8.5 | 
O=C(O)CC1CCN(Cc2cc(Oc3ccc(N4CCN(CCO)CC4)nc3)nc(-c3cc(Cl)cc(Cl)c3)c2)CC1 [Example 300, 2-(1-((2-(3,5-dichlorophenyl)-6-((6-(4-(2-hydroxyethyl)piperazin-1-yl)pyridin-3-yl)oxy)pyridin-4-yl)methyl)piperidin-4-yl)acetic acid] | 20 | 9.1 | 
CC(CC1CCN(Cc2cc(Oc3cnc(N4CCN(C[C@@H](C)O)CC4)nc3)nc(-c3cc(Cl)cc(Cl)c3)c2)CC1)C(=O)O (stereo partly drawn) [Example 301, 3-(1-((2-(3,5-dichlorophenyl)-6-((2-(4-((R)-2-hydroxypropyl)piperazin-1-yl)pyrimidin-5-yl)oxy)pyridin-4-yl)methyl)piperidin-4-yl)-2-methylpropanoic acid] | 39.8 | 9.6 | 
CC(=O)NCC1CCN(Cc2cc(Oc3cnc(N4CCN(C[C@@H](C)O)CC4)nc3)nc(-c3cc(Cl)cc(Cl)c3)c2)CC1 [Example 302] | 7.94 | 9.6 | 
CC(=O)NCC1CCN(Cc2cc(Oc3cnc(N4CCN(CC(C)(C)O)CC4)nc3)nc(-c3cc(Cl)cc(Cl)c3)c2)CC1 [Example 303, N-((1-((2-(3,5-dichlorophenyl)-6-((2-(4-(2-hydroxy-2-methylpropyl)piperazin-1-yl)pyrimidin-5-yl)oxy)pyridin-4-yl)methyl)piperidin-4-yl)methyl)acetamide] | 2.51 | 9.2 | 
CC(=O)NCC1CCN(Cc2cc(Oc3cnc(N4CCN(CC(O)CF)CC4)nc3)nc(-c3cc(Cl)cc(Cl)c3)c2)CC1 (stereo not shown) [Example 304, N-((1-((2-(3,5-dichlorophenyl)-6-((2-(4-(3-fluoro-2-hydroxypropyl)piperazin-1-yl)pyrimidin-5-yl)oxy)pyridin-4-yl)methyl)piperidin-4-yl)methyl)acetamide] | 2.51 | 8.8 | 
CNC(=O)OCC1CCN(Cc2cc(Oc3ccc(N4CCN(C[C@@H](C)O)CC4)nc3)nc(-c3cc(Cl)cc(Cl)c3)c2)CC1 [Example 305, (R)-(1-((2-(3,5-dichlorophenyl)-6-((6-(4-(2-hydroxypropyl)piperazin-1-yl)pyridin-3-yl)oxy)pyridin-4-yl)methyl)piperidin-4-yl)methyl methylcarbamate] | 10 | 8.7 | 
CNC(=O)OCC1CCN(Cc2cc(Oc3cnc(N4CCN(CCO)CC4)nc3)nc(-c3cc(Cl)cc(Cl)c3)c2)CC1 [Example 307, (1-((2-(3,5-dichlorophenyl)-6-((2-(4-(2-hydroxyethyl)piperazin-1-yl)pyrimidin-5-yl)oxy)pyridin-4-yl)methyl)piperidin-4-yl)methyl methylcarbamate] | 2 | 9.4 | 
CNC(=O)OCC1CCN(Cc2cc(Oc3cnc(N4CCN(C[C@@H](C)O)CC4)nc3)nc(-c3cc(Cl)cc(Cl)c3)c2)CC1 [Example 308, (R)-(1-((2-(3,5-dichlorophenyl)-6-((2-(4-(2-hydroxypropyl)piperazin-1-yl)pyrimidin-5-yl)oxy)pyridin-4-yl)methyl)piperidin-4-yl)methyl methylcarbamate] | 12.6 | 9.3 | 
CNC(=O)NCC1CCN(Cc2cc(Oc3ccc(N4CCN(C[C@@H](C)O)CC4)nc3)nc(-c3cc(Cl)cc(Cl)c3)c2)CC1 [Example 309, (R)-1-((1-((2-(3,5-dichlorophenyl)-6-((6-(4-(2-hydroxypropyl)piperazin-1-yl)pyridin-3-yl)oxy)pyridin-4-yl)methyl)piperidin-4-yl)methyl)-3-methylurea] | 2.51 | 9.8 | 
CNC(=O)NCC1CCN(Cc2cc(Oc3cnc(N4CCN(C[C@@H](C)O)CC4)nc3)nc(-c3cc(Cl)cc(Cl)c3)c2)CC1 [Example 310, (R)-1-((1-((2-(3,5-dichlorophenyl)-6-((2-(4-(2-hydroxypropyl)piperazin-1-yl)pyrimidin-5-yl)oxy)pyridin-4-yl)methyl)piperidin-4-yl)methyl)-3-methylurea] | 3.98 | 9.6 | 
COC(=O)NCC1CCN(Cc2cc(Oc3cnc(N4CCN(CCO)CC4)nc3)nc(-c3cc(Cl)cc(Cl)c3)c2)CC1 [Example 311, methyl ((1-((2-(3,5-dichlorophenyl)-6-((2-(4-(2-hydroxyethyl)piperazin-1-yl)pyrimidin-5-yl)oxy)pyridin-4-yl)methyl)piperidin-4-yl)methyl)carbamate] | 15.8 | 8.9 | 
COC(=O)NCC1CCN(Cc2cc(Oc3cnc(N4CCN(C[C@@H](C)O)CC4)nc3)nc(-c3cc(Cl)cc(Cl)c3)c2)CC1 [Example 312, (R)-methyl ((1-((2-(3,5-dichlorophenyl)-6-((2-(4-(2-hydroxypropyl)piperazin-1-yl)pyrimidin-5-yl)oxy)pyridin-4-yl)methyl)piperidin-4-yl)methyl)carbamate] | 15.8 | 9.7 | 
CNC(=O)NCC1CCN(Cc2cc(Oc3cnc(N4CCN(CCO)CC4)nc3)cc(-c3cc(Cl)cc(Cl)c3)c2)CC1 [Example 313, 1-((1-((3′,5′-dichloro-5-((2-(4-(2-hydroxyethyl)piperazin-1-yl)pyrimidin-5-yl)oxy)-[1,1′-biphenyl]-3-yl)methyl)piperidin-4-yl)methyl)-3-methylurea] | 15.8 |  | < 0.158
O=C(O)CCC1CCN(Cc2cc(Oc3ccc(N4CCN(CCO)CC4)nc3)nc(-c3cc(Cl)cc(Cl)c3)c2)CC1 [Example 314, 3-(1-((2-(3,5-dichlorophenyl)-6-((6-(4-(2-hydroxyethyl)piperazin-1-yl)pyridin-3-yl)oxy)pyridin-4-yl)methyl)piperidin-4-yl)propanoic acid] | 31.6 | 8.9 | 
CC(=O)NCC1CCN(Cc2cc(Oc3cnc(N4CCN(CCO)CC4)nc3)nc(-c3cc(F)cc(Cl)c3)c2)CC1 [Example 315, N-((1-((2-(3-chloro-5-fluorophenyl)-6-((2-(4-(2-hydroxyethyl)piperazin-1-yl)pyrimidin-5-yl)oxy)pyridin-4-yl)methyl)piperidin-4-yl)methyl)acetamide] | 15.8 | 9.2 | 
CC(=O)NCC1CCN(Cc2cc(Oc3cnc(N4CCN(CC(O)C(=O)O)CC4)nc3)nc(-c3cc(Cl)cc(Cl)c3)c2)CC1 (stereo not shown) [Example 316, 3-(4-(5-((4-((4-(acetamidomethyl)piperidin-1-yl)methyl)-6-(3,5-dichlorophenyl)pyridin-2-yl)oxy)pyrimidin-2-yl)piperazin-1-yl)-2-hydroxypropanoic acid] | 100 | 10.2 | 
C[C@@H](O)CN1CCN(c2ncc(Oc3cc(CN4CCC(OCC(=O)O)CC4)cc(-c4cc(Cl)cc(Cl)c4)n3)cn2)CC1 [Example 317, (R)-2-((1-((2-(3,5-dichlorophenyl)-6-((2-(4-(2-hydroxypropyl)piperazin-1-yl)pyrimidin-5-yl)oxy)pyridin-4-yl)methyl)piperidin-4-yl)oxy)acetic acid] | 15.8 | 9.2 | 
